Measured values taken from patent US20150110716A1, “METHODS OF USING SPECT/CT ANALYSIS FOR STAGING CANCER” (Molecular Insight Pharmaceuticals, Inc., priority 2013, published 2015).
Several values for one entry are separate records, joined by “and”; a condition that tells them apart may be missing. Identical values can stand only once.

How the values were obtained:
[1] = tested on: prostate cancer lesions (PSMA expressing); assay: Phase 1 study before radical prostatectomy: SPECT uptake in prostate lesions vs Gleason score; format: in vivo, human; set-up: Clinical Reading: scale not given here; conditions: for tumor/background ratio: 20 mCi, SPECT 2-4 hours p.i.
Protocol: Patients (n=8) diagnosed with localized PCa (Gleason ≧7 with ≧3 biopsy cores positive, and at least one core ≧30% involved with PCa) and who were scheduled for radical prostatectomy (RP) participated in this Phase 1 study. Within two weeks of surgery, each subject received a single dose of a compound represented by Formula (1), (20 mCi), and was then subjected to a planar whole body and Single Photon Emission Computed Tomography (SPECT) images between 2-4 hours post injection (p.i.). The uptake of the Tc-99m in prostate lesions was quantified, and the imaging results were compared to CT/MRI, histopathology and PSMA staining.

[2] = tested on: primary prostate cancer within the prostate gland; assay: Phase 2 study: SPECT/CT detection of primary prostate cancer vs histopathology; format: in vivo, human
Protocol: A phase-2 study to image men with high-risk prostate cancer scheduled for radical prostatectomy (RP) and Extended Pelvic Lymph Node Dissection (EPLND) was performed using a compound according to Formula (1), as an illustrative radioimaging agent. The primary objective of the study was to assess the safety and the ability of the Formula (1) compound to detect prostate cancer within the prostate gland. Secondary objectives include (i) assess the ability of the Formula (1) compound to detect the extent and location of prostate cancer within the prostate gland, (2) assess the ability of the Formula (1) compound to detect metastatic PCa within pelvic lymph nodes and to further detect the specific location of metastatic PCa within anatomic pelvic lymph node regions, (3) compare the performance of the Formula (1) compound as a prostate cancer imaging agent to MRI and compare the ability of the Formula (1) compound to detect the specific location of metastatic PCa within pelvic lymph nodes to the ability of MRI for detecting the specific location of metastatic PCa within pelvic lymph nodes.
A Phase-2 multi-center, multi-reader, open-label trial, to assess the performance characteristics of the Formula (1) compound as an imaging agent was measured by true-positive fraction (TPF equivalent to sensitivity) and false-positive fraction (FPF, equivalent to 1-specificity). The “truth standard” for determining true-positive cases and false-positive cases were histopathology results obtained subsequent to RP and EPLND. The performance of the Formula (1) compound as an imaging agent was compared to MRI by calculating (1) the difference in correctly identified positive cases by each imaging method that also are positive by histopathology subsequent to RP and EPLND (TPF); and (2), the difference in incorrectly identified […] cases by each imaging method, that also are […] by histopathology subsequent to RP and EPLND (FPF).
Newly-diagnosed prostate cancer patients at high-risk for metastatic disease who were scheduled for RP with EPLND were enrolled in the study. […] Subjects will receive a single intravenous dose of the Formula (1) compound (study drug) followed by both whole-body planar and SPECT/CT imaging 3-6 hours after injection. As standard of care, subjects underwent RP with EPLND surgery and histological assessment of specimens no more than 3 weeks after study drug dosing. Images of the patients were evaluated for visible uptake of the Formula (1) compound within the prostate gland and by regional assessment of nodal disease. These findings were compared against histopathology results used as the truth standard.
Efficacy analyses were conducted utilizing histopathology results subsequent to radical prostatectomy and extended pelvic lymph node dissection as the truth-standard for determination of positive and negative cases. Primary efficacy analyses estimated the ability of the compound represented by Formula (1) to detect cancer in prostate glands that were confirmed as harboring tumor based on a biopsy. The primary efficacy analysis evaluated sensitivity and specificity of the compound represented by Formula (1) using 80% power to establish the lower bound of one-sided 95% confidence intervals. All subjects who receive the Formula (1) and complete surgery will be included in the primary efficacy analysis.
Patients (pts) with biopsy confirmed adenocarcinoma of the prostate scheduled for RP with extended pelvic lymph node dissection (EPLND) at high risk for disease outside of the prostate gland were eligible. High risk patients were stage of T3c or […] or a nomogram score ≧130 (Godot′ et al., Eur. Urol., (2011), p 195-201). Within 30 days of screening, the patients required a bone scan and pelvic MRI. After enrollment, the patients received a compound represented by Formula (1) at a dose of 20 mCi±3 mCi followed by whole-body planar and SPECT/CT imaging 3 to 6 hrs later. Patients then underwent RP with EPLND within 21 days. […]

[3] = individual subjects (n=8), Gleason score 7 or 9, listed as 99mTc-MIP-1404
[4] = Patient/Gland Level (n = 54), interim, fraction
[5] = Patient/Gland, matched vs MRI (n = 47), fraction
[6] = interim, n=54, primary prostate cancer

**Q.** What does the source list for “(OC-6-33)-tricarbonyl[N^2-{[(1S)-1,3-dicarboxypropyl]amino]carbamoyl}-L-γ-glutamyl-N^6,N^6-bis[(1-{2-[bis(carboxymethyl)amino]-2-oxoethyl]-1H-imidazol-2-yl-κN^3]methyl]-L-lysine-κN^6](^99mTc)(+)chloride [Formula (1)]”?
**A.** correlation between 99mTc uptake levels and the Gleason score ([1]; Formula (1) compared with Formula (2)): stronger; tumor/background ratio ([1]; Gleason score of 7): 10.8±2.2; tumor/background ratio ([1]; Gleason score of 9): 30±10; identification of PCa foci confirmed by histopathology and PSMA staining ([1]; all subjects with Gleason score ≧7): clearly identified the PCa foci; Clinical Reading [1, 3]: 0 and 1 (3×) and 3 (2×) and 4 (2×); T/B Ratio [1, 3]: 13 and 14 and 10.5 and 10 and 6.5 and 15.5 and 33 and 45; Accuracy [2, 4]: 0.94; NPV [2, 4]: 0.40; PPV [2, 4]: 1.00; Sensitivity [2, 4]: 0.84; Specificity [2, 4]: 1.00; Accuracy [2, 5]: 0.94; NPV [2, 5]: 0.40; PPV [2, 5]: 1.00; Sensitivity [2, 5]: 0.93; Specificity [2, 5]: 1.00; patients in whom presence or absence of primary prostate cancer was correctly identified ([2]; interim, n=54, majority of SPECT/CT readers, histopathology as truth standard): 94%; Sensitivity [2, 6]: 94%; Specificity [2, 6]: 100%; matched patients in whom primary disease was correctly characterized ([2]; n=47 matched with MRI): 94%; more patients correctly characterized than by the MRI reader ([2]; n=47 matched with MRI): 13%
